Measurements taken from publication PMC8430704, “Novel Sulfonamide-Based Carbamates as Selective Inhibitors of BChE” (International Journal of Molecular Sciences, 2021).

Columns and labels:
AChE from electric eel = molecular target: T1, AChE from electric eel (Electrophorus electricus, UniProt O42275); test: AChE inhibition, modified Ellman's method; assay type: biochemical
T1 construct: from tissue
Experimental: (§1) The ability of all synthesized derivatives to inhibit eeAChE (acetylcholinesterase from electric eel, Electrophorus electricus) and eqBChE (butyrylcholinesterase from equine serum) was determined in vitro using the modified Ellman´s method. […] Ellmanʼs method is widely used for measuring cholinesterase activity and the efficiency of cholinesterase inhibitors. The principle of this simple method is the determination of the SH and -S-S- groups. The activity of the cholinesterase is measured indirectly by quantifying the concentration of 2-nitro-5-sulfanylbenzoic acid ion formed in the reaction between 5,5′-dithiobis-2-nitrobenzoic acid (DTNB) and thiocholine (i.e., the product of the acetylthiocholine hydrolysis catalysed by cholinesterase).
(§2) All studied compounds were dissolved in DMSO (concentration 0.01 M) and diluted in demineralized water (concentration 0.001 M). The ability of the studied compounds to inhibit eeAChE and eqBChE was determined using modified Ellman´s method at 25 °C in the presence of phosphate buffered saline (PBS, 0.1 M, pH 7.4) in a glass cuvette with 1 cm optical path. The enzyme activity in the total reaction mixture (2 mL) was 0.2 U/mL; the concentration of acetylthiocholine (ATCh) or butyrylthiocholine (BTCh) was 40 μM; and the concentration of DTNB was 0.1 mM for all reactions. The inhibitory activity of the studied derivatives was evaluated based on the ratio v0/vi (v0 is the rate of ATCh or BTCh hydrolysis in the absence of the inhibitor, vi is the rate of ATCh or BTCh hydrolysis in the presence of the inhibitor). The IC50 value was obtained from the dependence v0/vi on the concentration of the tested compound (inhibitor).
(§3) The determination of v0 was done as follows. Into the cuvette, PBS (0.1 M, pH 7.4), DTNB, and ATCh (BTCh) were placed. The enzymatic reaction was started by adding the enzyme. […] The measurement was performed at least in triplicate, and average v0 was determined.
(§4) Then, vi (for the given concentration of inhibitor) was determined. Into the cuvette, DTNB, ATCh (BTCh), a chosen volume of the suitably diluted inhibitor (to achieve the required concentration of inhibitor in the total reaction mixture), and a certain volume of PBS (to achieve the total volume of the reaction mixture 2 mL after adding the enzyme) were placed. The enzymatic reaction was started by adding the enzyme. […] Five different concentrations of the inhibitor were used, and each measurement was performed at least in duplicate.

BChE from equine serum [1] = molecular target: T2, BChE from equine serum (Equus caballus, UniProt P81908); test: BChE inhibition, modified Ellman's method; assay type: biochemical; conditions: for IC50: IC50 (µM) BChE, eqBChE, modified Ellman's method, 25 °C, PBS pH 7.4, mean ± SD, n = 3; for SI (selectivity index) = IC50 (AChE)/IC50 (BChE): value over 1 = more potent inhibition of BChE; for fold higher inhibitory activity against BChE than rivastigmine: ratio of BChE IC50 vs RIV
T2 construct: butyrylcholinesterase from equine serum; from tissue; host or cells: equine serum
T2 sequence (P81908 whole entry): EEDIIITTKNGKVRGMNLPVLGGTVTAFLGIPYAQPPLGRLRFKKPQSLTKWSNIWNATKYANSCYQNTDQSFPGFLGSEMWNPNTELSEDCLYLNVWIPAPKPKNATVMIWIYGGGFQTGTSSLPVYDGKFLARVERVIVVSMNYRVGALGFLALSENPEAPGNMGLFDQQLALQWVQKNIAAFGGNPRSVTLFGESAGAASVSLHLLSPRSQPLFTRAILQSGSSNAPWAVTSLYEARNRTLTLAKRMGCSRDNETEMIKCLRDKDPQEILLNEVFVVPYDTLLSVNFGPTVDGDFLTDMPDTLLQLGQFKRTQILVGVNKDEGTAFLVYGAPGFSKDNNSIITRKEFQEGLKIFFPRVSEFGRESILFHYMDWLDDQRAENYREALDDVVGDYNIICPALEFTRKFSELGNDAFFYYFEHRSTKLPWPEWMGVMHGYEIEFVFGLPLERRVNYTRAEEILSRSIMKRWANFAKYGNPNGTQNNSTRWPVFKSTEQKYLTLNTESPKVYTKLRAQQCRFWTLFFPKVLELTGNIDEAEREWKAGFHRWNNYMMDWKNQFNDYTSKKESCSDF
Experimental: Based on IC50 values for both cholinesterases, selectivity indexes (SI) as the ratio of IC50 for AChE/IC50 for BChE to quantify the preference for BChE were calculated.
as §1, §2, §3, §4

BChE from equine serum [2] = molecular target: T2, BChE from equine serum; test: Carbamylation of BChE (progressive inhibition kinetics); assay type: biochemical; conditions: from kobs vs. inhibitor concentration
Experimental: The evaluation of BChE carbamylation was performed on the basis of the measured dependences % residual activity vs. time in the presence of appropriate concentration of inhibitor. […] These dependences were evaluated by non-linear regression and the pseudo-first-order rate constants kobs for progressive inhibition at several inhibitor concentrations were obtained.
The decrease in enzyme activity over time due to inhibitor binding was monitored by the Ellman´s method. Pursuant the procedure described in Carletti [86], the determination was performed subsequently: the reaction mixture containing PBS (0.1 M, pH 7.4), BChE and chosen inhibitor in an appropriate concentration was prepared and intensively stirred. In given times DTNB and BTCh were added to the sample withdrawn from stirred reaction mixture, quickly mixed and absorbance was measured. Consequently, the enzyme activity was determined. Based on knowledge of enzyme activity in the absence of the inhibitor (i.e., 100% activity), the percentages of residual activity in presence of the inhibitor were calculated. Then the dependence of percentage of residual activity vs. time was constructed [87]. By nonlinear regression of these dependences the values of kobs were obtained and subsequently rate constants for carbamylation were calculated. All experiments were performed in duplicate at least.

BChE from equine serum [3] = molecular target: T2, BChE from equine serum; test: Reactivation (decarbamylation) of inhibited BChE; assay type: biochemical; conditions: BChE from equine serum inhibited ≥ 95%, dilution into PBS
Experimental: The procedure is described in Section 3.4.
Monitoring of enzyme reactivation was performed as follows. […] The excess inhibitor was removed by dilution into PBS. Samples were withdrawn at successive time points and assayed to measure recovery of enzymatic activity (Ellman´s method was used). […] All experiments were performed in duplicate at least.

[4] = Preliminary stability test (decomposition in buffer, HPLC)
Experimental: pH (6, 7.4, 8). Measurement of these degradations was performed by HPLC in reverse phase
acetonitrile/water (98:2). The compound was stirred in a tempered buffer (37 °C) of appropriate
pH and a sample was taken for HPLC analysis at a specified time.

human BChE [5] = conditions: cited from earlier work
human BChE [6] = conditions: cited from earlier work; remark: listed apart in the source

T1 sequence (O42275 24-633): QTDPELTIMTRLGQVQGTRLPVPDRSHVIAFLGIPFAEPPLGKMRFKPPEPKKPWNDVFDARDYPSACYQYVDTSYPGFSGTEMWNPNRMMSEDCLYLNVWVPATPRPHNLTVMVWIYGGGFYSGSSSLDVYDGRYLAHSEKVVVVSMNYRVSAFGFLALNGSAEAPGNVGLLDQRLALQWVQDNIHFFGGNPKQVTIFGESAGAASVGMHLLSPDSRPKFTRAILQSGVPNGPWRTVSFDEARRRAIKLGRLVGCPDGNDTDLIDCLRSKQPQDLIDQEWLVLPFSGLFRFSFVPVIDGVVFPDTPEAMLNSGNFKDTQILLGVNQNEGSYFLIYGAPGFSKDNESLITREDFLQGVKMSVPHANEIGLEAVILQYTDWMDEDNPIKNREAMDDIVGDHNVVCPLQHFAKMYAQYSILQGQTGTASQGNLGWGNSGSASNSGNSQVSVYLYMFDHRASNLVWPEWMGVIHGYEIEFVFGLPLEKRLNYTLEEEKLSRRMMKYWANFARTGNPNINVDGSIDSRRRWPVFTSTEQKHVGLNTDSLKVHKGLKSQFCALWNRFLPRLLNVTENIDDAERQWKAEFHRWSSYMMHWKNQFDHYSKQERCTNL

Row | SMILES | IC50 (AChE from electric eel) [µM] | IC50 (BChE from equine serum [1]) [µM] | SI (selectivity index) = IC50 (AChE)/IC50 (BChE) (BChE from equine serum [1]) | further results
1 | C[C@@H](CS(=O)(=O)NCc1ccccc1)NC(=O)OCc1ccccc1 [Compound 5a, Benzyl [(2S)-1-(benzylsulfamoyl)propan-2-yl]carbamate] | 90.6 ± 5.7 | 100 ± 4.26 | 0.90 | –
2 | O=C(N[C@@H](Cc1ccccc1)CS(=O)(=O)NCc1ccccc1)OCc1ccccc1 [Compound 5b, Benzyl [(2S)-1-(benzylsulfamoyl)-3-phenylpropan-2-yl]carbamate] | 76.9 ± 1.52 | 86.1 ± 1.91 | 0.89 | –
3 | CC(C)C[C@@H](CS(=O)(=O)NCc1ccccc1)NC(=O)OCc1ccccc1 [Compound 5c, Benzyl [(2S)-1-(benzylsulfamoyl)-4-methylpentan-2-yl]carbamate] | 91.8 ± 4.89 | 8.52 ± 0.32 | – | fold higher inhibitory activity against BChE than rivastigmine (BChE from equine serum [1]): approximately 5 fold
4 | CC(C)C[C@@H](CS(=O)(=O)Nc1ccccc1)NC(=O)OCc1ccccc1 [Compound 5d, Benzyl [(2S)-4-methyl-1-(phenylsulfamoyl)pentan-2-yl]carbamate] | 55.6 ± 1.38 | 16.54 ± 0.1 | 3.36 | –
5 | CCCNS(=O)(=O)C[C@H](CC(C)C)NC(=O)OCc1ccccc1 [Compound 5e, Benzyl [(2S)-4-methyl-1-(propylsulfamoyl)pentan-2-yl]carbamate] | 108 ± 2.39 | 58.9 ± 1.88 | 1.84 | –
6 | CC(C)C[C@@H](CS(=O)(=O)NCCc1ccccc1)NC(=O)OCc1ccccc1 [Compound 5f, Benzyl {(2S)-4-methyl-1-[(2-phenylethyl)sulfamoyl]pentan-2-yl}carbamate] | 115 ± 6.22 | 15.3 ± 0.38 | 7.50 | –
7 | O=C(N[C@@H](Cc1ccccc1)CS(=O)(=O)Nc1ccc(Cl)c(Cl)c1)OCc1ccccc1 [Compound 5g, Benzyl {(2S)-1-[(3,4-dichlorophenyl)sulfamoyl]-3-phenylpropan-2-yl}carbamate] | 78.83 ± 0.63 | 12.6 ± 0.31 | 6.25 | –
8 | O=C(N[C@@H](Cc1ccccc1)CS(=O)(=O)Nc1ccc2c(c1)OCO2)OCc1ccccc1 [Compound 5h, Benzyl [(2S)-1-(1,3-benzodioxol-5-ylsulfamoyl)-3-phenylpropan-2-yl]carbamate] | 61.39 ± 0.47 | 11.5 ± 0.28 | 5.32 | –
9 | O=C(N[C@@H](Cc1ccccc1)CS(=O)(=O)N[C@@H]1CCCO1)OCc1ccccc1 [Compound 5i, Benzyl {(2S)-1-phenyl-3-[(2S)-tetrahydrofuran-2-ylsulfamoyl]propan-2-yl}carbamate] | 61.7 ± 1.47 | 112 ± 3.41 | 0.55 | –
10 | CC(C)C[C@@H](CS(=O)(=O)NCc1ccc(Cl)cc1)NC(=O)OCc1ccccc1 [Compound 5j, Benzyl {(2S)-1-[(4-chlorobenzyl)sulfamoyl]-4-methylpentan-2-yl}carbamate] | 67.47 ± 0.37 | 6.57 ± 0.12 | – | apparent bimolecular rate constant (ki) of carbamylation (BChE from equine serum [2]): 1.084 ± 0.0535 M⁻¹ s⁻¹; reactivation of BChE after 24 h (BChE from equine serum [3]): 37%; fold higher inhibitory activity against BChE than rivastigmine (BChE from equine serum [1]): approximately 5 fold
11 | COc1ccccc1CNS(=O)(=O)C[C@H](CC(C)C)NC(=O)OCc1ccccc1 [Compound 5k, Benzyl {(2S)-1-[(2-methoxybenzyl)sulfamoyl]-4-methylpentan-2-yl}carbamate] | 150 ± 3.82 | – | – | starting material remaining ([4]; buffer pH 6, 37 °C, after 6 hrs): 13%; substance decomposed in the first hour ([4]; buffer pH 6, 37 °C, first hour): 75%; starting material remaining ([4]; buffer pH 7.4, 37 °C, 48 hours): 36%; starting material remaining ([4]; buffer pH 8, 37 °C, 4 hours): 5%
12 | CC(C)C[C@@H](CS(=O)(=O)NCc1ccc(F)c(F)c1)NC(=O)OCc1ccccc1 [Compound 5l, Benzyl {(2S)-1-[(3,4-difluorobenzyl)sulfamoyl]-4-methylpentan-2-yl}carbamate] | 92.9 ± 2.47 | 55.6 ± 1.38 | 1.67 | –
13 | CC(C)C[C@@H](CS(=O)(=O)NCc1ccco1)NC(=O)OCc1ccccc1 [Compound 5m, Benzyl {(2S)-1-[(furan-2-ylmethyl)sulfamoyl]-4-methylpentan-2-yl}carbamate] | 131.8 ± 0.42 | 19.99 ± 0.17 | – | –
14 | CC(C)C[C@@H](CS(=O)(=O)Nc1ccc(Cl)c(Cl)c1)NC(=O)OCc1ccccc1 [Compound 5n, Benzyl {(2S)-1-[(3,4-dichlorophenyl)sulfamoyl]-4-methylpentan-2-yl}carbamate] | 95.1 ± 2.77 | 13.5 ± 0.51 | 7.04 | –
15 | CCN(C)C(=O)Cl [EMCC, N,N-ethylmethylcarbaryl chloride] | – | – | – | reactivation of human BChE upon dilution (human BChE [5]; upon dilution): complete and rapid reactivation
16 | CCN(C)C(=O)Oc1cccc([C@H](C)N(C)C)c1 [RIV, rivastigmine] | – | – | – | reactivation of human BChE after 24 h (human BChE [5]; 24 h): < 10%; bimolecular rate constant for the carbamylation (human BChE [6]): 1500 M⁻¹ s⁻¹
